In data set [1] the test system is C57BL/6J-Tyr^c-2J/c-2J mice (OCA1a model). Nature of the data set: Coat and ocular pigmentation, clinical examination, Tyr^c-2J/c-2J mice. The data set is classed as in vivo, mouse. Particulars: one month. How it is done: Animal Husbandry and Clinical Examination. C57BL/6J mice (Stock #000664), C57BL/6JTyr^c-2J/c-2J mice (Stock #000058, MGI ID#1855985), and C57BL/6Tyr^c-h/c-h (Stock #000104, MGI ID#1855979) were obtained from the Jackson Laboratory (Bar Harbor, Me.). Mice were housed according to the institutional Animal Review Board standards with a 14 hour light/10 hour dark cycle. These studies conformed to the principles for laboratory animal research outlined by the Animal Welfare Act (NIH/HHS) and the ARVO Statement for the Use of Animals in Ophthalmic and Vision Research and were approved by the Institutional Animal Care and Use Committee of the National Eye Institute. Clinical examination and imaging of the anterior segment of mice were performed on gently-restrained, awake mice using a Haag-Streit BQ slit lamp and Imaging Module IM900® software (Haag-Streit, Inc., Mason, Ohio). […]
At the beginning of the study, baseline plasma concentrations of tyrosine, coat color (gross and microscopic), anterior segment pigment, and posterior segment pigment were documented for each mouse prior to initiating experiments. […] It is known that a possible side effect of NTBC treatment is corneal irritation, which is monitored daily. […] At the end of four weeks time, plasma tyrosine concentrations were assessed in both treated and control animals. […]

The test system is the same in data set [2]. Nature of the data set: Transmission electron microscopy of iris, RPE and choroid, Tyr^c-2J/c-2J mice. The data set is classed as in vivo, mouse. The conditions noted are these: treated vs untreated. How it is done: Transmission Electron Microscopy. Eyes from drug and vehicle-treated mice were dissected and divided into anterior and posterior segments (n=2 eyes from 2 separate mice in each group). The iris and posterior part (choroid, RPE and retina) of the eyes were removed and fixed in 2% glutaraldehyde and 2% paraformaldehyde in 0.1 M sodium phosphate buffer (PB), pH 7.4 for about 12 hours at room temperature (RT). After a wash with rinsing buffer (RB, 4% sucrose and 0.15 mM CaCl2 in PB), pH 7.4 at 4° C., tissues were postfixed in 1% OsO4 in 0.1 M PB, pH 7.4 for 1 hour. After rinsing and dehydration, tissues were embedded in Durcupan resin for 72 hours at 60° C. One micron semi-sections were used for tissue orientation. About 70-90 nm ultrasections were also collected in 200 mesh grids and counterstained with 5% uranyl acetate and 0.3% lead citrate. […]
In order to quantitate the effect of NTBC on pigmentation in ocular tissues and to assess for sub-clinical changes in ocular pigmentation, transmission electron microscopy (TEM) of iris, retinal pigment epithelium (RPE), and choroid of treated and control mice (n=4 eyes from 2 mice for each group) was performed. […]

The next data set relates to Tyr^c-h/c-h pups. Nature of the data set: Prenatal NTBC treatment of pregnant Tyr^c-h/c-h females, pup examination. Here is the method: Drug Dosing and Monitoring. Ten C57BL/6J Tyr^c-2J/c-2J and ten C57BL/6Tyr^c-h/c-h mice, 3-4 months of age were designated for treatment with NTBC (Swedish Orphan Drug, Stockholm, Sweden). An equal number of age-matched controls of each genotype designated to receive vehicle treatment. NTBC was dissolved in 2 M NaOH and brought to neutral pH before administration to mice. Coat color, iris transillumination and fundus appearance were photodocumented prior to treatment. Because pigment deposition in hair is stimulated with new hair growth, a section of each mouse's coat was shaved prior to the beginning of the experiment. Drug or vehicle was given every other day via oral gavages, at a dosage of about 4 mg/kg, in a volume of about 0.2-0.3 ml. […] Coat color, iris transillumination and fundus appearance were photodocumented at the end of 1 month of treatment or vehicle dosing. For prenatal treatment experiments, pregnancy was determined by a maternal weight gain of >2 g over 7-9 days, after observing a vaginal mucus plug. Treatment with 4 mg/kg NTBC was initiated daily at day 9 or 10 of pregnancy by oral gavage, and given until birth of the litter. At that point, every-other-day oral treatment of the mother was initiated until time of weaning.

Data set [3] concerns male Alpk:ApfCD-1 albino mice. Particulars: cited from earlier work.

Entries after “also recorded” stand apart in the source; their conditions may differ.

Turning to `O=C1CCCC(=O)C1C(=O)c1ccc(C(F)(F)F)cc1[N+](=O)[O-]` [NTBC, 2-(-2-nitro-4 trifluoromethylbenzoyl)-1,3 cyclohexanedione], the Phenotypic changes entry in data set [1] (1 mg/kg every other day by oral gavage) is given as “no phenotypic changes”. Moreover, the “Coat color, fundus pigmentation, iris transillumination (coat and ocular pigmentation)” value in data set [1] (4 mg/kg orally every other day, 4 mg/kg) is given as “no difference; also recorded: grossly unchanged”. Also, the “Number of pigmented melanosomes (stages III and IV) in iris, choroid and RPE (TEM)” value in data set [2] is “little to no increase”. Moreover, the “Fundus appearance of pups, vehicle- vs drug-treated dams” value with Tyr^c-h/c-h pups (Tyr^c-h/c-h, 4 mg/kg) is recorded as “no significant difference”. The “Congenital malformations or systemic illnesses in pups of treated mothers” value in the data set with Tyr^c-h/c-h pups (Tyr^c-h/c-h, 4 mg/kg prenatal treatment) is “no obvious congenital malformations or systemic illnesses”. In addition, the “Iris pigmentation of pups on clinical examination” value in the data set with Tyr^c-h/c-h pups (pups of NTBC-treated Tyr^c-h/c-h mothers, 4 mg/kg, near time of weaning) is “significant pigmentation”. In addition, the “Coat color of pups” value in the data set on Tyr^c-h/c-h pups (pups of NTBC-treated Tyr^c-h/c-h mothers, 4 mg/kg, vs vehicle-treated mothers) is reported as “considerably darker”. In addition, the “Tolerated NTBC dose” value in data set [3] (male Alpk:ApfCD-1 albino mice, age 3-6 weeks) is “up to 160 mg/kg/day”. In addition, the “NTBC dose at which maximum plasma tyrosine concentrations were achieved” value in data set [3] (mice, toxicologic studies (Lock et al.)) was ≤ 10 mg/kg.

Source of the values: patent US9364448B2, “Nitisinone for treatment of oculocutaneous/ocular albinism and for increasing pigmentation” (The United States of America, as represented by the …, priority 2010, dated 2016).
